Measured values reported in patent US8633204B2 (Pfizer Inc., priority 2006, dated 2014).
pIC50: −log10 of the molar value.

What was measured:
[1] = biological target: PI3-Kα (Mus musculus (Mouse), UniProt P42337); experiment: PI3-Kα Biochemical Assay (fluorescence polarization kinase assay)
Procedure: Compounds of the present invention were evaluated for potency against PI3-Kα using an in vitro kinase assay. PI3-Kα activity is measured in vitro by determining the level of phosphorylation of the substrate PI(4,5)P2. The formation of product PI(3,4,5)P3 is monitored by binding to the Grip1 PH domain in a ligand displacement fluorescence polarization (FP) assay, in which the TAMRA-labeled PI(3,4,5)P3 complexed with Grip1 PH domain is displaced by PI(3,4,5)P3 formed in the PI3-Kα reaction resulting in a decrease in FP signal. Mouse PI3-Kα P110 and P85 subunits were co-expressed in insect cells and co-purified to homogeneity. PI(4,5)P2 were obtained from Cayman. TAMRA-labeled PI(3,4,5)P3 were from Echelon, Grip1 PH domain from Dundee and other reagents were from Sigma.
All assays were performed in a Corning solid black 96-well half area plate using LJL Analyst (Molecular Devices) at room temperature. The assay buffer contained 50 mM HEPES, pH 7.4, 150 mM NaCl, 5 mM DTT, and 0.05% CHAPS. Dry powder PI(4,5)P2 was dissolved in 50 mM TRIS, pH 8 to make 1 mM stock solution. The PI(4,5)P2 stock solution was then diluted in the assay buffer to 60 μM, and sonicated for 30 sec before use. To the assay plate, the following reagents were added in sequence: 10 μL of 60 μM PI(4,5)P2, 5 μL of 4 nM PI3-Kα, 2 μL of compound in 25% DMSO, 3 μL of mixture containing 200 μM ATP and 33 mM MgCl2. The final volume for the reaction was 20 μL. The reaction mixture was incubated at room temperature for 35 min. The reaction was then stopped by 20 μL of 20 mM EDTA. […] The FP signal was allowed to develop for 40 min before reading on a LJL analyst at excitation 535 nm and emission 580 nm.
The percentage of inhibition was calculated based on the following equation % inhibition=[1−(FPcompound−FPmax)/(FPmin−FPmax)]×100, where FPcompound is the FP reading at a given compound concentration, FPmin is the FP signal of the PI3-Kα reaction in the absence of a compound, and FPmax is the background FP signal in the absence of PI3-Kα and a compound. The IC50 was determined by fitting the FP signal vs. compound concentration to a sigmoidal dose response equation using GraphPad Prism curve fitting program.

[2] = system: PI3-K in BT20 cells (phosphorylation of AKT at serine 473); experiment: PI3-Kα Cellular Assay (AKT Ser473 phosphorylation ELISA in BT20 cells); type: cell-based, human; settings: Homo sapiens, BT-20, pAKT Ser473 ELISA, 1 hour incubation
Procedure: Compounds of the present invention were evaluated for potency against PI3-K using a cellular assay as follows.
Healthy growing human breast cancer cells BT20 (PI3K mutated) are used for the assay. BT20 cells are grown in 10% FBS+GLN (1:100)+PS (1:100)+1 mM Sodium Pyruvate+0.1 mM Sodium Bicarbonate+Non-Essential Amino Acids Solution (1:100) MEM medium (MEM+all). […] The cells are re-suspended in 10% FBS MEM all and are centrifuged down at 1400 rpm for 5 minutes. The cells are re-suspended in 0.5% FBS MEM all and are counted on a cell counter. The cells are seeded at 25,000 cells/well in volume of 100 μL/well in 0.5% FBS MEM all in a 96 well flat-bottom plate. The negative control wells receive only 100 μL of 0.5% FBS MEM all medium without cells. The plate is incubated overnight in a cell culture incubator with 5% CO2 at 37° C.
On day 2, testing compounds are prepared in 0.5% FBS MEM all medium and serially diluted at 1:3 for 11 test concentrations. Each concentration of the compounds is tested in duplicate. The compound solutions are added at 25 μL/well to the corresponded wells in cell plate, and 25 μL/well of the vehicle (0.5% DMSO in 0.5% FBS MEM all) is added to the negative control wells (no cells) and the positive control wells (cells without compounds). The plate is incubated for 1 hour in a cell culture incubator with 5% CO2 at 37° C. After 1 hour of incubation, the medium is removed, 100 μL/well of cell lysis buffer is added into the cell plate, and shake for 15 minutes at room temperature. […] After 1 hour, empty the contents of the wells, wash the plate 4 times with the wash buffer, and add 100 μL of TMB substrate solution (catalog #T0440, Sigma) into each well, and incubate with gentle shaking at room temperature for […]. After 15 minutes of color development, add 100 μL of stop solution (1N hydrochloric acid) to each well, and read the plate at 450 nm on ELISA plate reader.

PI3-Kα, sequence (P42337 whole entry, the tested form may be a part): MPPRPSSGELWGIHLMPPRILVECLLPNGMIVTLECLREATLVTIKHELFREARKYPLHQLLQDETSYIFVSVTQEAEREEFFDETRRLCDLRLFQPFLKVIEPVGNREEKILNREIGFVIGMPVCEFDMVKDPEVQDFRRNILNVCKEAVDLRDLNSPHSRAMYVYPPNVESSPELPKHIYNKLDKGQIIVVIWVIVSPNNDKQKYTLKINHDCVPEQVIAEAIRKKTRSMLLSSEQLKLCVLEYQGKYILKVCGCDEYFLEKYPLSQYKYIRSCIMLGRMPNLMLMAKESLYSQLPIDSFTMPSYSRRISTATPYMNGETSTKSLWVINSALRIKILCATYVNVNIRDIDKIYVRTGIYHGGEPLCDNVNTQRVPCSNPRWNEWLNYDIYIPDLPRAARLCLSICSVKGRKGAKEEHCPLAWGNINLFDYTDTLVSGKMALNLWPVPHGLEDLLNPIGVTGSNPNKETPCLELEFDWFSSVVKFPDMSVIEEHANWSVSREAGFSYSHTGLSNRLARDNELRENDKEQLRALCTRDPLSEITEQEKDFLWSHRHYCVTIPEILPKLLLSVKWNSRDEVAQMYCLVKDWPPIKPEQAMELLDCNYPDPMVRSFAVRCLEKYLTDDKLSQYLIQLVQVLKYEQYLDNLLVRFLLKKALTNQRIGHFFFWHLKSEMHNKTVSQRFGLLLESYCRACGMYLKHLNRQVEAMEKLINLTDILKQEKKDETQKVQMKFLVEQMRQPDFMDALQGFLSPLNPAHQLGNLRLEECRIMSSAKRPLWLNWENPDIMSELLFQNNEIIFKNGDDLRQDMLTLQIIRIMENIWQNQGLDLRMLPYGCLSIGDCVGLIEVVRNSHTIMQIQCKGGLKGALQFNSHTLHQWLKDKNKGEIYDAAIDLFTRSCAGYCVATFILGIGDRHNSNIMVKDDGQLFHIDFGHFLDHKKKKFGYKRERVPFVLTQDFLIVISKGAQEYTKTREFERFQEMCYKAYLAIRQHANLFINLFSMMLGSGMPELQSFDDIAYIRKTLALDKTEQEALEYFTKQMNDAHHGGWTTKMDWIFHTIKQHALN
PI3-Kα, sequence (P26450 whole entry partner, the tested form may be a part): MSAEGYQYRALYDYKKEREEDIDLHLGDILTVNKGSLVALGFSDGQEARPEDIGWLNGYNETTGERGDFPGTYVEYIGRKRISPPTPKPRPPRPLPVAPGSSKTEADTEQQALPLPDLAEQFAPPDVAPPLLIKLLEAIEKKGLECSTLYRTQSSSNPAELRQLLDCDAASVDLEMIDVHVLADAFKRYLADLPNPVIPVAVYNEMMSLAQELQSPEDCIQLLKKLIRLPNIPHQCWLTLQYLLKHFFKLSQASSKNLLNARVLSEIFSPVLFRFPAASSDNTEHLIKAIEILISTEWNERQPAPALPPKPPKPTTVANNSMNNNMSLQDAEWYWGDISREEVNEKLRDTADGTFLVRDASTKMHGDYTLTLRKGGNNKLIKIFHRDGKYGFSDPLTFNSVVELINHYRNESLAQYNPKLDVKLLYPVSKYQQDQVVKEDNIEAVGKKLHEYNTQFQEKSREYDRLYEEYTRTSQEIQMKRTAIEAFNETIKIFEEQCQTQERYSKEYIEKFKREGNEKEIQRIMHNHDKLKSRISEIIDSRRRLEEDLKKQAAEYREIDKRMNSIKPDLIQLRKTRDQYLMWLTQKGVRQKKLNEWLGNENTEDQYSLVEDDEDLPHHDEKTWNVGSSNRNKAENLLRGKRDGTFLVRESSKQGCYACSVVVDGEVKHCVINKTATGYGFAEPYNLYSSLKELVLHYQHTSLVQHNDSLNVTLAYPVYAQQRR

Row | pIC50 [1] | pIC50 [2] | inhibition at 10 µM [1] [%] | Structure (SMILES)
1 | 7.41 | 7.13 |  | Cc1nc(N)nc2c1cc(-c1ccc(Cl)nc1)c(=O)n2C1CCCC1 [Compound 112, 2-amino-6-(6-chloropyridin-3-yl)-8-cyclopentyl-4-methylpyrido[2,3-d]pyrimidin-7(8H)-one]
2 | 7.06 | 7.58 |  | Cc1nc(N)nc2c1cc(-c1ccc(N3CCCC3)nc1)c(=O)n2C1CCCC1 [Compound 258, 2-amino-8-cyclopentyl-4-methyl-6-(6-pyrrolidin-1-ylpyridin-3-yl)pyrido[23-d]pyrimidin-7(8H)-one]
3 | 7.02 | 5.68 |  | Cc1nc(N)nc2c1cc(C#N)c(=O)n2C1CCC1 [Compound 269, 2-Amino-8-cyclobutyl-4-methyl-7-oxo-7,8-dihydropyrido[2,3-d]pyrimidine-6-carbonitrile]
4 | 7.53 | 8.04 |  | Cc1nc(N)nc2c1cc(-c1cn[nH]c1)c(=O)n2[C@H]1CC[C@@H](OCCO)CC1 [Compound 296, 2-amino-8-[cis-4-(2-hydroxyethoxy)cyclohexyl]-4-methyl-6-(1H-pyrazol-4-yl)pyrido[2,3-d]pyrimidin-7(8H)-one]
5 | 7.77 | 6.86 |  | Cc1nc(N)nc2c1cc(-c1cnc3[nH]ccc3c1)c(=O)n2C1CC1 [Compound 213, 2-amino-8-cyclopropyl-4-methyl-6-(1H-pyrrolo[2,3-b]pyridin-5-yl)pyrido[2,3-d]pyrimidin-7(8H)-one]
6 | 6.77 | 6.21 |  | COc1cccc(-c2cc3c(C)nc(N)nc3n(C3CCCC3)c2=O)c1 [Compound 145, 2-amino-8-cyclopentyl-6-(3-methoxyphenyl)-4-methylpyrido[2,3-d]pyrimidin-7(8H)-one]
7 | 7.70 | 7.59 |  | Cc1nc(N)nc2c1cc(-c1cn[nH]c1)c(=O)n2C1CCOC1 (stereo not drawn) [Compound 203]
8 | 8.02 | 7.76 |  | CO[C@H]1CC[C@H](n2c(=O)c(-c3cc[nH]n3)cc3c(C)nc(N)nc32)CC1 [Compound 187, 2-amino-8-(trans-4-methoxycyclohexyl)-4-methyl-6-(1H-pyrazol-3-yl)pyrido[2,3-d]pyrimidin-7(8H)-one]

The remaining lines, values behind:

Row | Structure (SMILES) | pIC50 [1] | pIC50 [2] | inhibition at 10 µM [1] [%]
9 | Cc1nc(N)nc2c1cc(-c1cnn(C)c1)c(=O)n2[C@H]1CC[C@H](OCCO)CC1 [Compound 302, 2-amino-8-[trans-4-(2-hydroxyethoxy)cyclohexyl]-4-methyl-6-(1-methyl-1H-pyrazol-4-yl)pyrido[2,3-d]pyrimidin-7(8H)-one] | 7.65 | 6.65 | 
10 | Cc1nc(N)nc2c1cc(-c1ccccc1)c(=O)n2Cc1ccc(Cl)cc1 [Compound 150, 8-(4-Chlorobenzyl)-2-amino-4-methyl-6-phenylpyrido[2,3-d]pyrimidin-7(8H)-one] | 5.85 | < 5.00 | 
11 | CCNc1nc(C)c2cc(CCC(=O)N(CC)CC)c(=O)n(C3CCCC3)c2n1 [Compound 117, 3-[8-cyclopentyl-2-(ethylamino)-methyl-7-oxo-7,8-dihydropyrido[2,3-d]pyrimidin-6-yl]-N,N-diethylpropanamide] |  | 5.00 | 32
12 | CNc1nc(C)c2cc(-c3cnc4[nH]ccc4c3)c(=O)n(CC3CCOC3)c2n1 (stereo not drawn) [Compound 217, 4-methyl-2-(methylamino)-6-(1H-pyrrolo[2,3-b]pyridin-5-yl)-8-((tetrahydrofuran-3-yl)methyl)pyrido[2,3-d]pyrimidin-7(8H)-one] | 8.80 | 7.87 | 
13 | COc1ccc(-c2cc3c(C)nc(N)nc3n(C(C)C)c2=O)cn1 [Compound 209, 2-amino-8-isopropyl-6-(6-methoxypyridin-3-yl)-4-methylpyrido[2,3-d]pyrimidin-7(8H)-one] | 7.96 | 7.19 | 
14 | Cc1nc(N)nc2c1cc(-c1cnc3[nH]ccc3c1)c(=O)n2[C@@H]1CC[C@H](O)C1 [Compound 163, 2-amino-8-[(1R,3S)-3-hydroxycyclopentyl]-4-methyl-6-(1H-pyrrolo[2,3-b]pyridin-5-yl)pyrido[2,3-d]pyrimidin-7(8H)-one] | 8.92 | 7.69 | 
15 | Cc1nc(N)nc2c1cc(-c1cnc3[nH]ccc3c1)c(=O)n2[C@@H]1CC[C@@H](O)C1 [Compound 165, 2-amino-8-[(1R,3R)-3-hydroxycyclopentyl]-4-methyl-6-(1H-pyrrolo[2,3-b]pyridin-5-yl)pyrido[2,3-d]pyrimidin-7(8H)-one] | 8.92 | 7.25 | 
16 | COc1ccc(-c2cc3c(C)nc(N)nc3n(CC(C)(C)F)c2=O)cn1 [Compound 244, 2-Amino-8-(2-fluoro-2-methyl-propyl)-6-(6-methoxy-pyridin-3-yl)-4-methyl-8H-pyrido[2,3-d]pyrimidin-7-one] | 7.52 | 6.36 | 
17 | COc1ccc(-c2cc3c(C)nc(N)nc3n(C3CCN(C(C)=O)C3)c2=O)cn1 (stereo not drawn) [Compound 248, 8-(1-Acetyl-pyrrolidin-3-yl)-2-amin-6-(6-methoxy-pyridin-3-yl)-4-methyl-8H-pyrido[2,3-d]pyrimidin-7-one] | 8.15 | 6.90 | 
18 | Cc1nc(N)nc2c1cc(-c1c[nH]nn1)c(=O)n2C(C)C [Compound 264, 2-Amino-8-isopropyl-4-methyl-6-(1H-1,2,3-triazol-4-yl)pyrido[2,3-d]pyrimidin-7(8H)-one] | 7.21 | 6.25 | 
19 | CNc1nc(C)c2cc(-c3cccc(OC)c3)c(=O)n(C3CCCC3)c2n1 [Compound 143, 8-cyclopentyl-6-(3-methoxyphenyl)-4-methyl-2-(methylamino)pyrido[2,3-d]pyrimidin-7(8H)-one] | 6.61 | 6.17 | 
20 | Cc1nc(N)nc2c1cc(-c1cn[nH]c1)c(=O)n2C1CN(C(=O)OC(C)(C)C)C1 [Compound 226, tert-butyl 3-(2-amino-4-methyl-7-oxo-6-(1H-pyrazol-4-yl)pyrido[2,3-d]pyrimidin-8(7H)-yl)azetidine-1-carboxylate] | 6.92 | 7.38 | 
21 | CO[C@H]1CC[C@H](n2c(=O)c(-c3ccc(N(C)C)nc3)cc3c(C)nc(N)nc32)CC1 [Compound 182, 2-amino-6-[6-(dimethylamino)pyridin-3-yl]-8-(trans-4-methoxycyclohexyl)-4-methylpyrido[2,3-d]pyrimidin-7(8H)-one] | 8.21 | 8.00 | 
22 | CNc1nc(C)c2cc(-c3cc(CN)ccc3F)c(=O)n(C3CCCC3)c2n1 [Compound 104, 6-(5-(Aminomethyl)-2-fluorophenyl)-8-cyclopentyl-4-methyl-2-(methylamino)pyrido[2,3-d]pyrimidin-7(8H)-one] |  | 5.00 | 43
23 | COc1ncc(-c2cc3c(C)nc(N)nc3n([C@H]3CC[C@@H](OCCO)CC3)c2=O)cc1F [Compound 294, 2-amino-6-(5-fluoro-6-methoxypyridin-3-yl)-8-[cis-4-(2-hydroxyethoxy)cyclohexyl]-4-methylpyrido[2,3-d]pyrimidin-7(8H)-one] | 8.59 |  | 
